Test results from patent publication US20100303896A1, “5BETA, 14BETA-ANDROSTANE DERIVATIVES USEFUL FOR THE TREATMENT OF RESTENOSIS AFTER ANGIOPLASTIC OR ENDOARTHERECTOMY AND DISEASES DUE TO ORGAN FIBROSIS” (SIGMA-TAU INDUSTRIE FARMACEUTICHE RIUNITE S.P.A., priority 2007, published 2010).
Several values for one entry are separate records, joined by “and”; a condition that tells them apart may be missing. Equal values may be shown once. Entries after “also recorded” stand apart in the source; their conditions may differ.

Columns and labels:
Assay type in all cases: in vivo, rat
[1] = tested on: MHS rats with CCl4-induced liver fibrosis; test: CCl4-induced liver fibrosis: hydroxyproline liver content
Source text: (§1) To test the activity of the compound of the invention for the prevention and treatment of organ fibrosis, spontaneous hypertensive MHS rats with genetic arterial hypertension (Bianchi G., Barber B. R., Torielli L., Ferrari P. The Milan hypertensive strain of rats. Genetic Model of Hypertension. 1994; 22: 457-460) were used. MHS rats are available at Prassis Research Institute, Sigma-tau, Italy.
Liver fibrosis was induced by CCl4 oral administration as described in J. Hepatol. 1999; 30: 621-631, with minor modifications: 0.375 ml/kg of CCl4 dissolved in olive oil was administered three times per week for three weeks by oral gavage to rats starting from the 7th week after weaning. Control rats received only the vehicle (olive oil). Rostafuroxin treatment started 7 weeks before the induction of liver fibrosis by CCl4 administration (pretreatment) and was continued during the CCl4 treatment for three weeks. Rostafuroxin was orally administered at 1 mg/kg/day, suspended in Methocel (0.5%). A total of twenty four MHS rats of 25 days of age (weaning) were subdivided in three groups of 8 rats each: the first group, considered as negative control for liver fibrosis induction (Ctr.), was orally treated with the Rostafuroxin vehicle (Methocel 0.5%) along the entire period (10 weeks) and received the olive oil as vehicle of CCl4 at the 7th week after weaning for three weeks; the second group, considered as positive control for liver fibrosis (Ctr. LF), was orally treated with the Rostafuroxin vehicle (Methocel 0.5%) along the entire period (10 weeks) and received CCl4 at the 7th week after weaning for three weeks; the third group, Rostafuroxin treated with liver fibrosis (RLF), received Rostafuroxin at 1 mg/kg along the entire period (10 weeks) and received CCl4 at the 7th week after weaning for three weeks. […]
Hydroxyproline liver content was determined as described in Anal. Biochem. 1981; 112: 70-75, with slight modifications.
Liver tissue (0.4 g) was homogenized in 3 ml 6 N HCl and hydrolyzed at 110° C. for 24 h. […] After cooling, the absorbance was measured at 558 nm (Jasco V-530).

[2] = tested on: MHS rats with CCl4-induced liver fibrosis; test: CCl4-induced liver fibrosis: body and organ weights
Source text: as §1
(§2) Liver fibrosis was induced by CCl4 oral administration as described in J. Hepatol. 1999; 30: 621-631, with minor modifications: 0.375 ml/kg of CCl4 dissolved in olive oil was administered three times per week for three weeks by oral gavage to rats starting from the 7th week after weaning. Control rats received only the vehicle (olive oil). Rostafuroxin treatment started 7 weeks before the induction of liver fibrosis by CCl4 administration (pretreatment) and was continued during the CCl4 treatment for three weeks. Rostafuroxin was orally administered at 1 mg/kg/day, suspended in Methocel (0.5%). A total of twenty four MHS rats of 25 days of age (weaning) were subdivided in three groups of 8 rats each: the first group, considered as negative control for liver fibrosis induction (Ctr.), was orally treated with the Rostafuroxin vehicle (Methocel 0.5%) along the entire period (10 weeks) and received the olive oil as vehicle of CCl4 at the 7th week after weaning for three weeks; the second group, considered as positive control for liver fibrosis (Ctr. LF), was orally treated with the Rostafuroxin vehicle (Methocel 0.5%) along the entire period (10 weeks) and received CCl4 at the 7th week after weaning for three weeks; the third group, Rostafuroxin treated with liver fibrosis (RLF), received Rostafuroxin at 1 mg/kg along the entire period (10 weeks) and received CCl4 at the 7th week after weaning for three weeks. At the end of the treatment (10th week), rats were weighed and anaesthetized with pentobarbital for blood sampling and organ removal. The blood was let clotted and serum separated after centrifugation and saved for measurement of serum albuminemia and transaminases (ALT and AST) on a Pentra 400 (ABX) Automatic Hematology Analyzer. Spleen and liver were removed and weighed. Samples of the liver median lobe were immediately frozen in liquid nitrogen and kept at −80° for further biochemical measurement of the 4-Hydroxiproline liver content, taken as an index of collagen deposition (Biochem. J. 1961; 80(1): 148-154). The rest of the liver was preserved in a 10% buffered formalin solution for the histological analysis.

[3] = tested on: MHS rats with CCl4-induced liver fibrosis; test: CCl4-induced liver fibrosis: serum albuminemia and transaminases (ALT and AST)
Source text: as §1, §2

[4] = tested on: spontaneous hypertensive MHS rats; test: Prevention of restenosis after carotid surgical injury (endoartherectomy model), morphometry of the carotid lumen area
Source text: as §1, with “prevention” for “prevention and treatment”, “restenosis after endoartherectomy,” for “organ fibrosis,”
After this period rats were subjected to the vascular surgical injury according to the protocol listed below. After surgical injury, rats were maintained under treatment either with vehicle or Rostafuroxin for further 30 days and then sacrificed for carotid artery sampling. […] The final number of rats used for the histological carotid analysis was; MHS vehicle=7, MHS Rostafuroxin=9.
(§3) The carotid surgical injury model used on MHS and MNS rat is described in J. Cell. Physiol. 2001; 186:307-313.
(§4) Briefly, a plastic Scanlon clamp for coronary artery bypass grafting was placed for 10 seconds on the carotid artery in order to cause a crushing lesion to vessel. At the same point where the clamp was applied, a 0.5 mm longitudinal incision was performed on the full thickness of the carotid artery. […] Hemostasis was obtained with a single adventitial 8.0-gauge polypropylene stitch. Once bleeding stopped, the carotid artery was carefully examined and blood pulsation was checked distally to the incision.
Carotid arteries were taken 30 days after injury. […]
(§5) For each injured carotid, at least 60 serial cross-sections were observed under a light microscope at 20× magnification; image screening and photography were performed using Leica IM 1000 System (Leica, Wetzlar, Germany). The sections of injured carotids showing maximal remodelling and proliferative phenomena were identified and further analyzed.
(§6) Lumen and medial areas were measured using the Leica IM 1000 software (Leica, Heerbrugg, Switzerland). […] For each contralateral uninjured carotid, at least 10 sections were analyzed and the average media and lumen areas were calculated. […]

[5] = tested on: MHS rats with CCl4-induced liver fibrosis; test: CCl4-induced liver fibrosis: quantitative histomorphometric analysis of fibrotic area (Sirius Red, ImageJ)
Source text: as §1
Liver fibrosis was induced by CCl4 oral administration as described in J. Hepatol. 1999; 30: 621-631, with minor modifications: 0.375 ml/kg of CCl4 dissolved in olive oil was administered three times per week for three weeks by oral gavage to rats starting from the 7th week after weaning. Control rats received only the vehicle (olive oil). Rostafuroxin treatment started 7 weeks before the induction of liver fibrosis by CCl4 administration (pretreatment) and was continued during the CCl4 treatment for three weeks. Rostafuroxin was orally administered at 1 mg/kg/day, suspended in Methocel (0.5%). […]
A quantitative analysis of the degree of fibrosis, following the histological qualitative analysis, was performed by digital imaging conversion of the histological pictures by a previously described method (J. Gastroenterol. 2004, Oct. 1; 10(19)2894-2897).
Briefly, after staining with Sirius Red, liver collagen content was measured by histomorphometric method. […] Each picture was analyzed by computer system ImageJ version 1.39 for digital image analysis. […] The fibrotic area with positive staining were automatically selected, outlined and evaluated. Relative content of collagen was calculated as a percentage of positive staining pixels on the total number of pixels of the picture.

[6] = tested on: MNS rats without arterial hypertension; test: Prevention of restenosis after carotid surgical injury, morphometry of the carotid lumen area; settings: 100 μg/kg orally, carotid taken 30 days after injury
Description: as §3, §4
Carotid arteries were taken 30 days after injury. Rats were anaesthetized and carotids were dissected free from the surrounding tissues. […]
as §5, §6

[7] = tested on: MHS rats with CCl4-induced liver fibrosis; test: CCl4-induced liver fibrosis: histopathology and qualitative fibrosis score on Syrius red stained slides; parameters: key to Liver fibrosis score, histological appearance (FIG. 8): 0: Absence of liver fibrosis, but normal staining pattern only; 1: Mild degree, corresponding to centrilobular/periportal fibrosis, with predominantly uncomplete septal expansion—mild focal interstitial fibrosis; 2: Moderate degree, corresponding to diffuse bridging fibrosis, with focal nodular appearance—multifocal interstitial fibrosis; 3: Severe degree, corresponding to confluent fibrosis, with diffuse nodular appearance—severe diffuse interstitial fibrosis
Source text: as §1, §2
For each case, the median and the left lobes of the liver were subjected to standard trimming and embedding procedures; slides were stained with Hematoxylin and Eosin (H&E) (Laboratory Methods in Histotechnology; Armed Forces Institute of Pathology Published by the American Registry of Pathology Washington, D.C. 1992). Special techniques were also applied in order to allow proper connective tissue detection (Masson's Trichrome stain—Laboratory Methods in Histotechnology; Armed Forces Institute of Pathology Published by the American Registry of Pathology Washington, D.C. 1992) as well as specific collagen detection and hepatic fibrosis evaluation (Syrius red staining method as described in The Journal of Histochemistry and Citochemistry 1985; vol 33, No. 8, pp. 737-743).
Liver fibrosis was qualitatively scored on Syrius red stained slides as follows:
0=Absence of liver fibrosis, but normal staining pattern only;
1=Mild degree, corresponding to centrilobular/periportal fibrosis, with predominantly uncomplete septal expansion—mild focal interstitial fibrosis;
2=Moderate degree, corresponding to diffuse bridging fibrosis, with focal nodular appearance—multifocal interstitial fibrosis;
3=Severe degree, corresponding to confluent fibrosis,
with diffuse nodular appearance—severe diffuse interstitial fibrosis. […]

[8] = RLF group, 1 mg/kg os for 10 weeks + CCl4, individual rats, 1 mg/kg
[9] = rats with CCl4-induced liver fibrosis, 1 mg/kg os
[10] = rats with CCl4-induced liver fibrosis, vs Ctr. LF, statistically significant

## C[C@]12CC[C@H](O)C[C@H]1CC[C@@H]1[C@@H]2CC[C@]2(C)[C@@](O)(c3ccoc3)CC[C@]12O [Rostafuroxin, 17 beta-(3-Furyl)-5 beta-androstane-3beta, 14 beta, 17 alpha-triol]
[1]; RLF group, 1 mg/kg os for 10 weeks + CCl4, group mean (n=8), Ctr. LF mean 1596.45
  Liver hydroxyproline, mean: 1184.9 μg/g prot
[1]; [8]
  Liver hydroxyproline: 886.5 μg/g prot and 791.6 μg/g prot and 1217.4 μg/g prot and 811.0 μg/g prot and 799.8 μg/g prot and 2762.3 μg/g prot and 750.0 μg/g prot and 1460.7 μg/g prot
[1]; rats with CCl4-induced liver fibrosis, vs Ctr. LF
  Reduction of liver content of hydroxyproline: 25.8%
[2]; RLF group, 1 mg/kg os for 10 weeks + CCl4, group mean (n=8), Ctr. LF mean 0.355
  Spleen/bw, mean: 0.284%
[2]; [8]
  Spleen/bw: 0.251% and 0.316% and 0.261% and 0.262% and 0.247% and 0.302% and 0.348% and 0.288%
[2]; [9]
  Weight of the liver: not modified
[2]; [10]
  Reduction of spleen weight: 20%
[3]; RLF group, 1 mg/kg os for 10 weeks + CCl4, group mean (n=8), Ctr. LF mean 3.02
  Albumin, mean: 3.53 g/dL
[3]; [8]
  Albumin: 3.65 g/dL and 3.36 g/dL and 4.15 g/dL and 2.95 g/dL and 3.19 g/dL and 3.07 g/dL and 3.82 g/dL and 4.04 g/dL
[3]; [9]
  Transaminases (ALT and AST): not modified
[3]; [10]
  Increase of plasma levels of albumin: 16.8%
[4]; MHS rats with arterial hypertension, vs vehicle, statistically significant
  Change in arterial restenosis vs vehicle: −45%
[4]; MHS rats, 100 μg/kg orally, carotid taken 30 days after injury, group mean (n=9), vehicle mean 0.379
  Carotid lumen area, Injured/Uninjured carotid ratio, mean: 0.680
[4]; MHS rats, 100 μg/kg orally, carotid taken 30 days after injury, individual animals
  Carotid lumen area, Injured/Uninjured carotid ratio: 0.86 and 0.83 and 0.81 and 0.66 and 0.54 and 0.36 and 0.25 and 0.90 and 0.89
[5]; RLF group, 1 mg/kg os for 10 weeks + CCl4, group mean (n=8), Ctr. LF mean 10.48
  % FIBROTIC AREA, mean: 5.50%
[5]; [8]
  % FIBROTIC AREA: 4.64% and 5.50% and 1.44% and 6.63% and 6.89% and 5.08% and 11.80% and 2.01%
[5]; [10]
  Reduction of liver fibrotic area: 47.5%
[6]; group mean (n=10), vehicle mean 0.540
  Carotid lumen area, Injured/Uninjured carotid ratio, mean: 0.765
[6]; individual animals
  Carotid lumen area, Injured/Uninjured carotid ratio: 0.93 and 0.83 and 0.80 and 0.76 and 0.75 and 0.68 and 0.59 and 0.36 and 1.00 and 0.95
[7]; CCl4-treated rats, 1 mg/kg os, compared with Ctr. LF group, 1 mg/kg
  Extension of liver tissue damage (histopathology): minor extension of tissue damage; also recorded: less extended tissue damage
[7]; RLF group, 1 mg/kg OS + CCl4
  Liver fibrosis Absence (score 0), % of rats: 0%
  Liver fibrosis Absence (score 0), No. of rats: 0/8
  Liver fibrosis Mild (score 1), % of rats: 75%
  Liver fibrosis Mild (score 1), No. of rats: 6/8
  Liver fibrosis Moderate (score 2), % of rats: 25%
  Liver fibrosis Moderate (score 2), No. of rats: 2/8
  Liver fibrosis Severe (score 3), % of rats: 0%
[7]; RLF group, 1 mg/kg OS + CCl4, 1 mg/kg
  Liver fibrosis Severe (score 3), No. of rats: no rats and 0/8
[7]; liver from two CCl4 rats treated at 1 mg/kg os (RLF group)
  Liver fibrosis score, histological appearance (FIG. 8): 1
